Data as given in patent US8877158B2, “Targeting agent to newly formed blood vessels” (FUJIFILM Corporation, priority 2009, dated 2014).

Key:
[1] = target: T1, αVβ3 integrin (Homo sapiens, UniProt P05106+P06756); assay: Inhibition of αVβ3-integrin-mediated HUVEC adhesion by anti-αV antibody; format: cell-based; settings: coating 0.2 μg/well; antibody-treated vs untreated HUVECs
T1 construct: many αVβ3 integrin molecules are permanently expressed on the surfaces of HUVECs; host or cells: HUVEC (normal human umbilical vein endothelial cells)
Method: In order to identify binding between R-Gel and HUVECs as αVβ3-integrin-mediated binding, experimentation was conducted to determine whether or not R-Gel-to-cell adhesion would be inhibited by blocking αVβ3 integrin with an anti-αV antibody in the R-Gel-to-cell adhesiveness tests conducted in (7) above.
Specifically, cell adhesion experiments were conducted as described in (7) above. Experiments were conducted using the R-Gel-coated plate and the fibronectin-coated plate at a coating concentration of 0.2 μg/well. The prepared HUVECs were incubated with anti-human αV monoclonal antibodies (MAB1980: CHEMICON) at a sufficient concentration at 37° C. for 30 minutes, and they are described as “antibody-treated HUVECs”. On the other hand, the prepared HUVECs were incubated with the addition of the same amount of PBS at 37° C. for 30 minutes, and they are described as ““untreated HUVECs”. Cells were inoculated on plates with addition of a solution (100 μL/well) prepared in a manner such that it contained antibody-treated HUVECs or untreated HUVECs at a concentration of 1,000,000 cells/mL. The time for cell adhesion was determined to be 1 hour at 37° C. as in the case of (7) above. Quantitative determination of the number of cells was carried out by DNA assay as in the case of (7) above.

[2] = system: HUVECs; assay: HUVEC cell adhesiveness test on protein-coated plates (DNA assay, 1-cell area); format: cell-based, human
Source text: HUVECs (normal human umbilical vein endothelial cells; Takara Bio Inc.) were used as vascular endothelial cells. It is known that many αVβ3 integrin molecules are permanently expressed on the surfaces of HUVECs. By testing cell adhesiveness of R-Gel to HUVECs, binding of R-Gel to vascular endothelial cells activated by newly formed blood vessels can be elucidated. Also, binding of R-Gel to αVβ3 integrin that has been reported to be highly expressed at newly formed blood vessel sites can be elucidated.
For culture of HUVECs, endothelial cell basic medium-2 (containing no serum) (EBM™-2) and endothelial cell medium kit-2 (2% FBS) (EGM™-2 BulletKit™) were used (Takara Bio Inc.). Upon subculture and removal of cells, an EDTA-containing 0.25% trypsin solution was used. HUVECs that had been allowed to proliferate to a sufficient amount in a T-75 flask were removed from the bottom surface of the flask, followed by centrifugation for removal of the supernatant. Then, the resultant was washed with the above endothelial cell basic medium-2 containing the endothelial cell medium kit 2. Centrifugation was performed again to remove the supernatant. […] The number of living cells was counted using cell counter. […]
DNA assay was performed for quantitative determination of the number of cells on the obtained plates. […]

[3] = system: neovascular site; assay: Inhibition of accumulation of R-Gel in neovascular site by previous administration of cyclo-RGDfK; format: in vivo, mouse; settings: for fluorescence intensity in the neovascular site: average±S.D.
Method: In order to evaluate whether accumulation of R-Gel in neovascular site is targeting caused by the same mechanism as that of circular RGD peptide cyclo-RGDfK, whether accumulation of R-Gel would be inhibited by previously administering a large amount of cyclo-RGDfK was examined. Unlabeled cyclo-RGDfK was dissolved in a concentration of 1 mg/ml in ultrapure water, and thereafter, 100 μL of the obtained solution was administered to a mouse via caudal vein administration. Thirty minutes later, 100 μL of Cy7-R-Gel was administered thereto via caudal vein administration. As a control, instead of cyclo-RGDfK, 100 μL of PBS (phosphate buffer) was administered to a mouse via caudal vein administration, and thirty minutes later, 100 μL of Cy7-R-Gel was administered thereto via caudal vein administration. After completion of the administration, fluorescence intensity in the neovascular site was measured over time. When the fluorescence intensity was measured 1 hour after the administration, the fluorescence intensity in the PBS administration group was 98063583±1200251 (average±S.D.), whereas the fluorescence intensity in the cyclo-RGDfK administration group was 81431011±1373625 (average±S.D.). […] Likewise, in the measurement 3 hours after the administration, the fluorescence intensity in the PBS administration group was 88124139±3438695 (average±S.D.), whereas the fluorescence intensity in the cyclo-RGDfK administration group was 60269975±1267782 (average±S.D.). In the measurement 24 hours after the administration, the fluorescence intensity in the PBS administration group was 22196881±2549892 (average±S.D.), whereas the fluorescence intensity in the cyclo-RGDfK administration group was 12763810±1927458 (average±S.D.).

[4] = system: tumor site and tumoral neovascular site; assay: Imaging of tumor site and tumoral neovascular site of cancer-bearing animal (Colon-26 homograft); format: in vivo, BALB/c mouse; settings: cyclo-RGDfK administered 30 minutes before Cy7-R-Gel
Method: As a tumor-bearing animal model, a cancer-bearing animal was produced. As an animal, BALB/c mouse (female, 6-week-old; Japan SLC, Inc.) was used. Tumor was produced using a cancer cell homograft model. As cancer cells, Colon-26 (which were cells derived from BALB/c mouse colon cancer) was used, and these cells were cultured in large scale in an RPMI1640 medium containing 10% fetal bovine serum. For the culture, a T-225 flask was used. Using EDTA-containing 0.25% trypsin, the growing cancer cells were removed from the bottom of the flask, and a culture supernatant was then removed by centrifugation. Thereafter, the solution was replaced with PBS (phosphate buffer), and the cell concentration was then counted using a cell counter. […]
200 μL of the Cy7-R-Gel or Cy7-animal gelatin produced in (6) above was administered to the cancer-bearing animal produced in (9) above via caudal vein administration, and a fluorescence imaging experiment was then carried out from the outside of the body of the animal.
For detection of a fluorescence signal, measurement, and imaging, Lumino image analyzer LAS5000 (a trial product of Fujifilm Corporation) was used. A visible light image and a fluorescence image were simultaneously taken, and the two images were then overlapped to identify a site from which fluorescence was emitted. […]

[5] = in vivo, 24 h; cited from earlier work

T1 sequence (P06756 31-889 limits assumed): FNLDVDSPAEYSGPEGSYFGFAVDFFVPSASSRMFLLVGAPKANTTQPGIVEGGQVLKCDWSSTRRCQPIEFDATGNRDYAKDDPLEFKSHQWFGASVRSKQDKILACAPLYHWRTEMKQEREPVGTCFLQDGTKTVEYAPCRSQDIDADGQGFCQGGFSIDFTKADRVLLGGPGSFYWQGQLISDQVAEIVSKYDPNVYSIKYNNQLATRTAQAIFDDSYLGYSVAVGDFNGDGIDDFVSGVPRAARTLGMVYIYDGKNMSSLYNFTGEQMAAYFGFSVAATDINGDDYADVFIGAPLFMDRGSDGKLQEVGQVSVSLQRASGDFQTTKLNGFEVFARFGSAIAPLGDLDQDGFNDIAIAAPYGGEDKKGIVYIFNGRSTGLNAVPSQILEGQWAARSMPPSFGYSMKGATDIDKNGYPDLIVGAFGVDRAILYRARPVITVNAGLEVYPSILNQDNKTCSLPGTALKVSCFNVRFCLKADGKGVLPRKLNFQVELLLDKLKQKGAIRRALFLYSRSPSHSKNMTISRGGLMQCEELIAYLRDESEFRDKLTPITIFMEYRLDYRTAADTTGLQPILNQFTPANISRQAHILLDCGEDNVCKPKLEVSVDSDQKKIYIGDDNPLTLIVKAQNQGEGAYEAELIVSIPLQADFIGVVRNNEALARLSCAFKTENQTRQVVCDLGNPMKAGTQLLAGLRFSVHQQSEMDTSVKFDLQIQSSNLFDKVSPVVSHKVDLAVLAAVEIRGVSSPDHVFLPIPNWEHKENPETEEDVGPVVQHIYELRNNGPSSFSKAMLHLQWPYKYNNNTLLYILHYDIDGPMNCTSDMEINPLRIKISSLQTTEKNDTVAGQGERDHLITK
T1 sequence (P06756 891-1048 partner limits assumed): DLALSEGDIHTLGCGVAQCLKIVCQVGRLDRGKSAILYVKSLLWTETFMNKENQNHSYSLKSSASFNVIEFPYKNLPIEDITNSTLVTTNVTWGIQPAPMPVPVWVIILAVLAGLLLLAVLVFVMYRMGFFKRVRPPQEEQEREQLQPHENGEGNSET
T1 sequence (P05106 27-788): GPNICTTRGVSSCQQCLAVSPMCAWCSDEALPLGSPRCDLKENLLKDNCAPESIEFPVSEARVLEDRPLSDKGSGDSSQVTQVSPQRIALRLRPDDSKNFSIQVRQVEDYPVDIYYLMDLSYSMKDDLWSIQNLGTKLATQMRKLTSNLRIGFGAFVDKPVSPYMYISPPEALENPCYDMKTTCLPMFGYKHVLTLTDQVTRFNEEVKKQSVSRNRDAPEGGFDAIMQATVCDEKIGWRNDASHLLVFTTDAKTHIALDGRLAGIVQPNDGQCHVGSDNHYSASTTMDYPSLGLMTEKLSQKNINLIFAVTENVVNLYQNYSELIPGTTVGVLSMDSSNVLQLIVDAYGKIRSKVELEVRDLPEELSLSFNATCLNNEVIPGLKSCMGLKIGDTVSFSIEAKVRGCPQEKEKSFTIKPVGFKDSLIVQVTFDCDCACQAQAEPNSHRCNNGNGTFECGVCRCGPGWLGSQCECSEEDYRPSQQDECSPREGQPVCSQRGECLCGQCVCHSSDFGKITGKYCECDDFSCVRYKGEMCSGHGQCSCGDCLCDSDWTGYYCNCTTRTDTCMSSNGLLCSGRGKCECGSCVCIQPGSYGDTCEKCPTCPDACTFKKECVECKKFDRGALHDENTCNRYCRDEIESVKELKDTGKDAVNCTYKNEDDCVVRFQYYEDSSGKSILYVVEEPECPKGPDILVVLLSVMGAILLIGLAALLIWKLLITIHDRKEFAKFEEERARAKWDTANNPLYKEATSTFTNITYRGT

fibronectin
adhesion to HUVECs treated with anti-human αV monoclonal antibody (MAB1980) [1]: significantly inhibited

R-Gel: recombinant gelatin CBE3, SEQ ID NO: 1, GAP[(GXY)63]3G, 571 amino acids, 12 RGD sequences
adhesion to HUVECs (number of cells by DNA assay) ([2]; coated plates 0.02-2.0 μg/well, 1 hour at 37° C.): superior to fibronectin, Fibrogen, PSK, and G1917P
1-cell area of HUVEC adhering to coated plate ([2]; from photos, ImageJ): significantly superior to Fibrogen, PSK, and G1917P
adhesion to HUVECs treated with anti-human αV monoclonal antibody (MAB1980) [1]: significantly inhibited

cyclo-RGDfK
fluorescence intensity in the neovascular site ([3]; Cy7-R-Gel 30 min after cyclo-RGDfK (1 mg/ml, 100 μL) pre-administration, 1 hour after the administration): 81431011±1373625
fluorescence intensity in the neovascular site ([3]; Cy7-R-Gel 30 min after cyclo-RGDfK pre-administration, 3 hours after the administration): 60269975±1267782
fluorescence intensity in the neovascular site ([3]; Cy7-R-Gel 30 min after cyclo-RGDfK pre-administration, 24 hours after the administration): 12763810±1927458
effect of previous administration of cyclo-RGDfK on accumulation of R-Gel in blood vessels ([3]; large amount of cyclo-RGDfK administered 30 min before Cy7-R-Gel): inhibits the effect of R-Gel to accumulate in blood vessels
accumulation of R-Gel in the tumoral neovascular site and the tumor site after previous cyclo-RGDfK [4]: decreased

cyclic-RGDyK
amount of the circular RGD peptide remaining in the body [5]: ≤ 15%
